Results taken from US20200138921A1, “METHODS OF PREVENTING AND TREATING DISEASES CHARACTERIZED BY SYNAPTIC DYSFUNCTION AND NEURODEGENERATION INCLUDING ALZHEIMER'S DISEASE” (The Trustees of Columbia University in the City of New York, priority 2017, published 2020).
Each block holds one compound with its values, some of them ahead of it.

What was measured:
wild-type mice = assay: Dendritic spine density in hippocampus of wild-type mice; assay type: in vivo; conditions: single TOP injection 275 μg
Protocol: (§1) The protocol for diolistic labeling of neurons was adapted from Gan et al. 2000 and Gan et al. 2009. Briefly, 100 mg of tungsten particles (1.1 μm diameter; Bio-Rad) were thoroughly precipitated with 5.0 mg of lipophilic dye (DiI; ThermoFisher) and dissolved in 100 μl of methylene chloride. Dye-coated particles were shot 2-3 times into the cells using the Helios gene gun system (Bio-Rad) and left in 0.1 M PBS overnight to allow dye diffusion along neuronal processes. Cells were post-fixed with 4% paraformaldehyde (Pierce) for 1 hour to preserve staining, then mounted onto glass slides using Gel Mount (Biomeda) and stored at 4° C. in the dark.
(§2) Labeled neurons were imaged using the Laser Scanning Microscope (LSM) 510 Meta confocal microscope (Zeiss), equipped with 40×1.3 NA and 100×1.4 NA oil-immersion objectives. The NIH Image software program ImageJ was used the quantify diolistic-labeled cultured neurons. An average of 12 compressed images (20 μm thick) consisting of pyramidal neurons were quantified for each treatment. Spines were counted with NeuronStudio software in a blinded manner and spine density was represented in number of spine per μm dendritic length. Statistical analysis was performed using the statistics package GraphPad Prism.
Controls were wild type mice injected with PBS.

[1] = system: primary hippocampal neurons; assay: Dendritic spine density in cultured hippocampal neurons (DiOlistic labeling); assay type: cell-based, rat; conditions: oAβ for 24 hours
Protocol: as §1, §2
To further test whether increasing Ube3A could rescue the effects of oAβ, cultured primary hippocampal neurons (14 DIV) were pretreated with 300 nM of TOP or control PBS. The neurons were then treated with oAβ for 24 hours, and whole cell lysates prepared for Western blot analysis, or fixed for microscopy.

Ephexin-5 = assay: Western blot of Ephexin-5 in cultured primary hippocampal neurons; assay type: cell-based, rat
Protocol: (§3) Hippocampal neuron cultures from both male and female rat embryos (E17-18) were prepared following a slightly modified version of the method of Brewer et al. 1996. Hippocampal neurons were kept in culture at 37° C. with 5% CO2 in Neurobasal medium (ThermoFisher) with B27 (ThermoFisher) supplement and Glutamax (ThermoFisher) and plated at a density of 2.5×10^5 cell/ml on dishes coated with poly-D-lysine (ThermoFisher). For the experiments, neurons were used after 14-21 days in vitro (DIV). Rat neuroblastoma B35 cells were cultured and maintained in DMEM (ThermoFisher) supplemented with 10% fetal bovine serum (FBS; Invitrogen) and Glutamax (ThermoFisher).
(§4) Whole frozen mouse hippocampi, human brain specimens, and cultured cells were homogenized in RIPA buffer (ThermoFisher) supplemented with protease and phosphatase inhibitor cocktail (ThermoFisher), using a Teflon dounce homogenizer and centrifuged at 14,000 rpm for 10 minutes at 4° C. Supernatants were collected, normalized by BCA assay (ThermoFisher), and prepared for loading using sample buffer (SB) 4× (ThermoFisher) and dithiothreitol (DTT) 10× (ThermoFisher).
(§5) Cultured primary hippocampal neurons (14 DIV) were treated with 300 nM of a topoisomerase type I inhibitor, topotecan (TOP) or a vehicle control as described in Huang et al. 2012. Some cells were treated for 24 hours and some for 72 hours. All cells were harvested and whole cell lysates prepared for Western blot analysis of Ube3A and Ephixin-5.

amyloid plaques = assay: Amyloid plaque histology (6E10) in J20 mice; assay type: in vivo; conditions: TOP treated J20 mice at 12.5 months of age vs J20 mice treated with PBS
Excerpt: Immunolabeling was done on 30 μm brain sections from the J20 TOP treated mice and PBS treated wild-type and J20 mice. Staining was done using the anti-Aβ antibody 6E10 (Covance) and GFAP (Cell Signaling). Plaque load and astrocytosis were quantified using ImageJ. Total plaque area was expressed as a percentage of the total hippocampal area.

Ube3A = assay: Western blot of Ube3A protein in cultured primary hippocampal neurons; assay type: cell-based, rat
Protocol: as §3, §4, §5

RhoA-GTP = assay: Rho-GTPase activity pull-down assay in hippocampal neurons; assay type: cell-based, rat
Protocol: Rho-GTPase pull-down assays were performed following the manufacturer's protocol (Cytoskeleton, Inc.). Briefly, cells were washed once with ice-cold PBS and lysed with RIPA/M-PER buffer (1:1; ThermoFisher). Lysates were incubated on ice for 5 minutes, and centrifuged (12,000 g) for 5 minutes. 30 μl was used for input and the remaining lysates were incubated with Rhotekin-RBD (RhoA) or PAK-RBD (Rac1) protein beads (25 μl) by rotating for 1 hour at 4° C. Beads were washed with ice-cold PBS (500 μl, 3×) and collected, and bound proteins were eluted with 1× sample buffer (30 μl). Input and eluted samples were then analyzed by gel electrophoresis and Western blotting using either a RhoA or Rac1-specific antibody.
To test whether increasing Ube3A could rescue the effects of oAβ, cultured primary hippocampal neurons (14 DIV) were pretreated with 300 nM of TOP or control PBS. At day 3 the cells were treated with oligomeric Aβ for 6 hours and whole cell lysates prepared for Western blot analysis of Ube3A protein levels and levels of active GTPase levels including RhoA-GTP, Rac1-GTP and Cdc42-GTP.

Arc = assay: Western blot of Arc in hippocampal neurons; assay type: cell-based, rat; conditions: Aβ for 8-10 hours
Protocol: as §4
As observed in the Tg2576 mice hippocampi, the levels of Ube3A inversely correlated with the levels of Arc and Ephexin-5. To determine whether this correlation was also observed in hippocampal neurons, the cells were treated with Aβ for 8-10 hours, and whole cell lysates were collected for Western blot analysis.

Ube3A mRNA = assay: qPCR of Ube3A mRNA in hippocampal neurons; assay type: cell-based, rat; conditions: oAβ for 24 hours (results not shown)
Protocol: Neurons were lysed and total RNA was extracted using TRIzol reagent (Ambion) following the manufacturer's protocol. RNA concentration and purity were assessed by measuring the optical density at 260 and 280 nm with a NanoDrop (Thermo Scientific). cDNA was synthesized using the first-strand cDNA synthesis kit (Origene) with 1 μg of total RNA, following the manufacturer's instructions. Quantitative real-time PCR was performed using FastStart SYBR Green Master Mix (Roche) and an Eppendorf Realplex Mastercyler with the following cycle settings: 1 cycle at 95° C. for 10 min and 40 cycles of amplification, 95° C. for 15 s, 58-60° C. for 30-60 s, 72° C. for 30-60 s. The amounts of Ube3A mRNA were quantified and normalized to GAPDH mRNA using the following primer pairs: Ube3A forward 5′-[…]-3′ (SEQ ID NO: 3) and reverse 5′-[…]—3′ (SEQ ID NO: 4). The threshold cycles were determined and normalized to the threshold cycles of a GAPDH gene. Relative mRNAs levels for Ube3A were expressed as a fold induction in an experimental condition compared with a control condition.
In mammals, the Ube3A gene is subject to genomic imprinting, whereby only the maternal allele is expressed in neurons. The paternal allele is silenced through the expression of a Ube3A-antisense (Ube3A-ATS), transcribed as part of a large non-coding antisense transcript (Runte et al. 2001).

[2] = neurons pretreated with 300 nM TOP, oligomeric Aβ for 6 hours at day 3
[3] = neurons 21 DIV, oAβ for 24 hours

RhoA activity (RhoA-GTP; [2]): decreased
Compound: CC[C@@]1(O)C(=O)OCc2c1cc1n(c2=O)Cc2cc3c(CN(C)C)c(O)ccc3nc2-1 [TOP, topotecan]
dendritic spine density (wild-type mice): significant increase | protection against oAβ-induced loss of dendritic spine density ([1]; neurons pretreated with 300 nM TOP): complete protection | Ephexin-5 level (Ephexin-5; neurons 14 DIV, 300 nM TOP, vs vehicle): significant decrease | accumulation of amyloid plaques (amyloid plaques): approximately equal accumulation | Ube3A protein levels (Ube3A; neurons 14 DIV, 300 nM TOP, 24 or 72 hours, vs vehicle): increased as early as 24 hours and persisted up to three days | Ube3A protein levels (Ube3A; [2]): increased

Compound: oAβ: synthetic soluble oligomeric Aβ1-42
dendritic spine density ([1]; neurons 21 DIV): significant decrease | levels of Arc protein (Arc): significant increase | levels of Ephexin-5 protein (Ephexin-5; hippocampal neurons, Aβ for 8-10 hours): significant increase | levels of Ube3A mRNA (Ube3A mRNA): did not show any differences | levels of Ube3A protein (Ube3A; [3]): significant decrease | levels of active RhoA-GTP (RhoA-GTP; [3]): significant increase
